Values after ≈ are worked out from the molar mass of the structure shown.
Tests used:
[1] = test system: K-562 human leukemia cells; experiment: antiproliferative test on K-562 human leukemia cells; assay type: cell-based; conditions: K562
Text: (§1) The inventive substances 1-4 show very strong antiproliferative and cytotoxic effects (e.g. for L-929 mouse fibroblast, K-562 human leukemia cells and HeLa human cervix carcinoma line) and an antifungal activity (e.g. against Glomerella cingulata, Penicillium notatum, Fusarium culmorum, Hamigera avellanea, Aspergillus fumigatus). (See Table 1.)
(§2) The examination of the antiproliferative and cytotoxic properties of the substances 1-4 has been performed via the method described in the literature (H. M. Dahse, B. Schlegel, U. Gräfe, Pharmazie 2001, 56, 489-491). The antifungal activity has been determined via the agar diffusion test. (See Table 2.)

[2] = cytotoxicity test on HeLa human cervix carcinoma line; assay type: cell-based; conditions: HeLa human cervix carcinoma cells, cytotoxic
Text: as §1, §2

L-929 mouse fibroblast = experiment: antiproliferative test on L-929 mouse fibroblasts; assay type: cell-based; conditions: L929
Text: as §1, §2

human cancer cell lines = conditions: a number of human cancer cell lines, particularly vincristin-resistent cells; cited from earlier work

SMILES	GI50 [1]	CC50 [2]	GI50 (L-929 mouse fibroblast)	activity against human cancer cell lines (human cancer cell lines)
CC(/C=C/C=C(\C)[C@H](O)[C@@H](C)C1C[C@H](O)C2(C)O[C@@H]2/C=C/[C@@H](C)[C@H](O)C[C@H](CC(=O)O)C/C=C/C(=O)O1)=C\c1coc(C)n1 (some centres unmarked) [Substance 1]	15 ng/mL (≈ 24.4 nM)	90 ng/mL (≈ 147 nM)		
COC(=O)C[C@@H]1C/C=C/C(=O)OC([C@H](C)[C@@H](OC)/C(C)=C/C=C/C(C)=C\c2coc(C)n2)C[C@H](O)C2(C)O[C@@H]2/C=C/[C@@H](C)[C@H](O)C1 (some centres unmarked) [Substance 4]	< 0.03 ng/mL		12 ng/mL (≈ 18.7 nM)	
COC(=O)C[C@@H]1C/C=C/C(=O)OC([C@H](C)[C@@H](O)/C(C)=C/C=C/C(C)=C/c2coc(C)n2)C[C@H](O)C2(C)O[C@@H]2/C=C/[C@@H](C)[C@H](O)C1 (some centres unmarked) [Substance 2]	0.03 ng/mL (≈ 0.0478 nM)	0.28 ng/mL (≈ 0.446 nM)	50 ng/mL (≈ 79.6 nM)	
CO[C@@H](/C(C)=C/C=C/C(C)=C/c1coc(C)n1)[C@@H](C)[C@@H]1C[C@H](O)[C@@]2(C)O[C@@H]2/C=C/[C@@H](C)[C@H]2C[C@H](CC(=O)O2)C[C@@H]2O[C@H]2C(=O)O1 [Rhizoxin]				high activity
COC(=O)C[C@@H]1C/C=C/C(=O)OC([C@H](C)[C@@H](OC)/C(C)=C/C=C/C(C)=C/c2coc(C)n2)C[C@H](O)C2(C)O[C@@H]2/C=C/[C@@H](C)[C@H](O)C1 (some centres unmarked) [Substance 3]	< 0.03 ng/mL	< 0.03 ng/mL	50 ng/mL (≈ 77.9 nM)	
